Results published in patent US5091169A, “Dipyridoxyl phosphate NMRI contrast agent compositions” (priority 1989, dated 1992).
Like-named read-outs stand apart in the source and are kept apart here.

How the values were obtained:
selected body organs = details: for T1, Bile / T1, Heart / T1, Liver / T1, Renal cortex / T1, Renal medulla: 0.01 mmol/kg i.v., 10 MHz
Method: Each of seven rabbits was injected intravenously with 0.01 mmol/kg of the solution obtained in Example 7. The rabbits were sacrificed at 0.25, 0.50, 1.0, 2.0, 4, 6 and 24 hours post-injection, and the proton relation values of selected body organs were measured with NMR, in vitro, at 10 MHz.

[1] = 10 MHz, 37° C
Method: The relations of protons present in water and plasma exposed to the chelate product of Example 7 was tested by NMR for relaxities, in msec, at 10 MHz, 37° C.

[2] = Description: The compound DPDP was studied potentiometrically from pH 11.2 to 2.0. Data sets were collected on a custom-built automatic potentiometric titration apparatus composed of a METROHM 655 DOSIMAT automatic buret, a FISHER ACCUMET pH meter with a CORNING calomel combination electrode, a custom-blown water jacketed titration cell, a BRINKMAN LAUDA K-2/R constant temperature bath and a COMMODORE 64 computer. The BASIC computer program TITRATOR (Harris, W. et al, J.Am.Chem.Soc. 101:6534 (1979)) runs the apparatus. Data analysis was performed on an IBM-AT computer using the least squares program, BETA (Harris, W. et al, supra), and the data analysis program, HANDNBAR (Harris, W. et al, supra). The titrants were standardized by phenophthalein titration as follows: KOH was calibrated against potassium hydrogen phthalate (a primary standard), and HCl solutions were calibrated against the KOH standard. The Mn(II)Cl2 solution was standardized with an EDTA titration using Erichrome Black T as the indicator. All solutions were made from distilled, deionized water that was further purified on a MILLI-Q cartridge system, degassed, and then kept under an atmosphere of argon which had been scrubbed for CO2 and O2. Additions of EDTA and Mn(II) solutions were performed using calibrated GILMOT pipets. The electrode was calibrated in concentration units with degassed solutions of p[H+]=2.291 and 1.078 at 0.1 M ionic strength.
The metal complex titration was performed by adding 152.2 mg (0.2383 mmoles) to 74.6 ml of a high pH aqueous solution. 2.07 ml of a 0.1152 M Mn(II) solution (0.2386 mmoles) were added. The complex was then titrated to low pH with 1.002 N HCl.

Cc1ncc(COP(=O)(O)O)c(CN(CCN(CC(=O)[O-])Cc2c(COP(=O)(O)O)cnc(C)c2O)CC(=O)[O-])c1O.[Mn+2] [Mn(DPDP), manganese chelate complex of N,N'-bis-(pyridoxal-5-phosphate)ethylenediamine-N,N'-diacetic acid]
T1, Bile (selected body organs; 0.25 hr): 160 ms
T1, Heart (selected body organs; 0.25 hr): 231 ms
T1, Liver (selected body organs; 0.25 hr): 68 ms
T1, Renal cortex (selected body organs; 0.25 hr): 202 ms
T1, Renal medulla (selected body organs; 0.25 hr): 192 ms
T1, Bile (selected body organs; 0.50 hr): 46 ms
T1, Heart (selected body organs; 0.50 hr): 352 ms
T1, Liver (selected body organs; 0.50 hr): 76 ms
T1, Renal cortex (selected body organs; 0.50 hr): 191 ms
T1, Renal medulla (selected body organs; 0.50 hr): 231 ms
T1, Bile (selected body organs; 1.0 hr): 25 ms
T1, Heart (selected body organs; 1.0 hr): 381 ms
T1, Liver (selected body organs; 1.0 hr): 48 ms
T1, Renal cortex (selected body organs; 1.0 hr): 229 ms
T1, Renal medulla (selected body organs; 1.0 hr): 236 ms
T1, Bile (selected body organs; 2 hr): 21 ms
T1, Heart (selected body organs; 2 hr): 507 ms
T1, Liver (selected body organs; 2 hr): 48 ms
T1, Renal cortex (selected body organs; 2 hr): 192 ms
T1, Renal medulla (selected body organs; 2 hr): 310 ms
T1, Bile (selected body organs; 4 hr): < 1 ms
T1, Heart (selected body organs; 4 hr): 522 ms
T1, Liver (selected body organs; 4 hr): 145 ms
T1, Renal cortex (selected body organs; 4 hr): 210 ms
T1, Renal medulla (selected body organs; 4 hr): 340 ms
T1, Bile (selected body organs; 6 hr): 14 ms
T1, Heart (selected body organs; 6 hr): 663 ms
T1, Liver (selected body organs; 6 hr): 209 ms
T1, Renal cortex (selected body organs; 6 hr): 239 ms
T1, Renal medulla (selected body organs; 6 hr): 375 ms
T1, Bile (selected body organs; 24 hr): 107 ms
T1, Heart (selected body organs; 24 hr): 660 ms
T1, Liver (selected body organs; 24 hr): 315 ms
T1, Renal cortex (selected body organs; 24 hr): 328 ms
T1, Renal medulla (selected body organs; 24 hr): 563 ms
uptake and clearance (selected body organs; liver, renal cortex, renal medulla and heart): rapid uptake and clearance of Mn(DPDP) in the liver, renal cortex, renal medulla and heart
clearance time through renal and hepatobiliary systems (selected body organs; post-injection, i.v.): 6 to 8 h
T1 (Plasma) ([1]; 0.000039 Molar): 1103 ms
T1 (Plasma) ([1]; 0.000078 Molar): 995 ms
T1 (Plasma) ([1]; 0.000156 Molar): 856 ms
T1 (Water) ([1]; 0.000156 Molar): 1470 ms
T1 (Plasma) ([1]; 0.000312 Molar): 624 ms
T1 (Water) ([1]; 0.000312 Molar): 1083 ms
T1 (Plasma) ([1]; 0.000625 Molar): 398 ms
T1 (Water) ([1]; 0.000625 Molar): 639 ms
T1 (Plasma) ([1]; 0.00125 Molar): 240 ms
T1 (Water) ([1]; 0.00125 Molar): 332 ms
T1 (Plasma) ([1]; 0.0025 Molar): 139 ms
T1 (Water) ([1]; 0.0025 Molar): 175 ms
T2 (Plasma) ([1]; 0.0025 Molar): 124 ms
T1 (Plasma) ([1]; 0.005 Molar): 74 ms
T1 (Water) ([1]; 0.005 Molar): 100 ms
T2 (Plasma) ([1]; 0.005 Molar): 68 ms
T2 (Water) ([1]; 0.005 Molar): 86 ms
T1 (Plasma) ([1]; 0.010 Molar): 40 ms
T1 (Water) ([1]; 0.010 Molar): 43 ms
T2 (Plasma) ([1]; 0.010 Molar): 34 ms
T2 (Water) ([1]; 0.010 Molar): 41 ms
log Kf (formation constant) ([2]; Mn(II) chelate, titrated from pH 11.1 to 2.0): 14.8
binding of Mn(II) ion ([2]; physiological pH): quantitatively bound to the chelating agent
pH below which chelate begins to demetallate ([2]; titration data): below 4.5
collection in extravascular space (blood-brain barrier; defect in blood-brain barrier): large amounts of the complex of Mn(DPDP) collect in the extravascular space
observation of blood-brain barrier defects by NMRI (blood-brain barrier; not observable without Mn(DPDP) as contrast agent): such defects were observed by NMRI tomography
